Earlier results in article PMC9851200, “Multiparameter phenotypic screening for endogenous TFEB and TFE3 translocation identifies novel chemical series modulating lysosome function” (Autophagy, 2022).

Assays:
Set-up in all cases: method as in original PKIS2 published data
[1] = target: kinases (KINOMEscan panel) (Homo sapiens, UniProt P17948); details: kinase FLT1; Published KINOMEscan; ref original PKIS2 published data; cited from earlier work
[2] = target: T1, kinases (KINOMEscan panel) (Homo sapiens, UniProt Q02156); details: kinase PRKCE; Published KINOMEscan; ref original PKIS2 published data; cited from earlier work
T1 sequence (Q02156 1-737): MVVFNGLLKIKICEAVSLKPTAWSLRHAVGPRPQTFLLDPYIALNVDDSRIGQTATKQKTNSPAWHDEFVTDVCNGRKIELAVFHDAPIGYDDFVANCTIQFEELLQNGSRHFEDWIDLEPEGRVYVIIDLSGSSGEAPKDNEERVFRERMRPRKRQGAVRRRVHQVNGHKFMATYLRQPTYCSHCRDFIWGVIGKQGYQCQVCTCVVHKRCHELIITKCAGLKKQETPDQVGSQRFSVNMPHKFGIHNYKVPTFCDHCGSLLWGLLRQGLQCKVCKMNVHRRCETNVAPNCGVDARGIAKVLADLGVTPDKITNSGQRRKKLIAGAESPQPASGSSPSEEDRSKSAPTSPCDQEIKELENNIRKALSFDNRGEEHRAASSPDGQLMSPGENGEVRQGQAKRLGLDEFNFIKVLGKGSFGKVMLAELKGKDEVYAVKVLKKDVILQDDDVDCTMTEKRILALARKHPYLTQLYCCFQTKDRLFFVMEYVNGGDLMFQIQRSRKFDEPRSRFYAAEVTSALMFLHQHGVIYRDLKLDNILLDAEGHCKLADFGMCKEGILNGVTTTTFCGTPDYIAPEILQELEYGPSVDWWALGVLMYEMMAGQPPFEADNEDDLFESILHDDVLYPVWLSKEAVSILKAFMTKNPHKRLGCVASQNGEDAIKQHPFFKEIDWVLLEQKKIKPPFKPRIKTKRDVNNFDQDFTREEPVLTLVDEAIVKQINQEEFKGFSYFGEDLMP

[3] = target: T2, kinases (KINOMEscan panel) (Homo sapiens, UniProt Q8NG66); details: Published KINOMEscan; ref original PKIS2 published data; cited from earlier work
T2 sequence (Q8NG66 1-645): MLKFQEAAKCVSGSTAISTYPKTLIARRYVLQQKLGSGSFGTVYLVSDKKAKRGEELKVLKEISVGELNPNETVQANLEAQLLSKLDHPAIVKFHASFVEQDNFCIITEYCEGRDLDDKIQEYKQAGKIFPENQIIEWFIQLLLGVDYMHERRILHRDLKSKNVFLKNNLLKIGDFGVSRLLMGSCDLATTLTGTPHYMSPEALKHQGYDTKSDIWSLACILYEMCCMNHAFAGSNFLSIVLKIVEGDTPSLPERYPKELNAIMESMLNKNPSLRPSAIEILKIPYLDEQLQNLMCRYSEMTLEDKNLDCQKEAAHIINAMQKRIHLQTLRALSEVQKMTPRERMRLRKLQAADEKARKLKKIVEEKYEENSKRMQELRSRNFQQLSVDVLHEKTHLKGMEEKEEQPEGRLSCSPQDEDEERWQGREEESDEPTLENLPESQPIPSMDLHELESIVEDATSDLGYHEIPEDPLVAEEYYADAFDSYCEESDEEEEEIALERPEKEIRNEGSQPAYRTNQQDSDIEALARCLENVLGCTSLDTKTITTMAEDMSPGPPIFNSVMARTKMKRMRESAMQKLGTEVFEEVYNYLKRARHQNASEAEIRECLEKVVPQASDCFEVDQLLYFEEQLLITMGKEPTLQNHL

[4] = target: T3, kinases (KINOMEscan panel) (Homo sapiens, UniProt O00444); details: kinase PLK4; Published KINOMEscan; ref original PKIS2 published data; cited from earlier work
T3 sequence (O00444 1-970): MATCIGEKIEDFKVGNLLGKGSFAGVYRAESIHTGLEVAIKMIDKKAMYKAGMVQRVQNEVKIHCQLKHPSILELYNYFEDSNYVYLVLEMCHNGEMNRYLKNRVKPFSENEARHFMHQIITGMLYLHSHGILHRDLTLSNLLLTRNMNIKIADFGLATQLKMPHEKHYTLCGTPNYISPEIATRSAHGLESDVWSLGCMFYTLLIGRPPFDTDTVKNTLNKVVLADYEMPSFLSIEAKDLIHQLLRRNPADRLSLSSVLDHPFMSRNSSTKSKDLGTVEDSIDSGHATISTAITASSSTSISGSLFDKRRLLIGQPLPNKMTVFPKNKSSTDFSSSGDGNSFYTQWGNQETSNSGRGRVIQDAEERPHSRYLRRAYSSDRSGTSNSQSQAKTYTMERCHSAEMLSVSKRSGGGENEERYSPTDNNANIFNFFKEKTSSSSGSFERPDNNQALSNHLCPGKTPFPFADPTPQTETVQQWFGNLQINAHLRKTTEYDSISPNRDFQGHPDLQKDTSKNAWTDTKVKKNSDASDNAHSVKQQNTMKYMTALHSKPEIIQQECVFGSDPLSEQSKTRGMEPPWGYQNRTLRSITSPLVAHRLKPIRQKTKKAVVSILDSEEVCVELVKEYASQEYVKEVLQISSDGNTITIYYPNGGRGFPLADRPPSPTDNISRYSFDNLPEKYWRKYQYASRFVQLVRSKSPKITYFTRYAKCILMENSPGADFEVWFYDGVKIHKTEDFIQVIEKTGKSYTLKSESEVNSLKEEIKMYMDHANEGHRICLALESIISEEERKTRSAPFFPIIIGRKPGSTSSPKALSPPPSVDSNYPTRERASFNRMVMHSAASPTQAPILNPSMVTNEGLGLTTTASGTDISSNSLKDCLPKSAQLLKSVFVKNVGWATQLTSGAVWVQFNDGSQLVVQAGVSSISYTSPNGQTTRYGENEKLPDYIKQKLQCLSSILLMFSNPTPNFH

Chain of kinases (KINOMEscan panel) (Homo sapiens, UniProt P17948) (P17948 27-1338): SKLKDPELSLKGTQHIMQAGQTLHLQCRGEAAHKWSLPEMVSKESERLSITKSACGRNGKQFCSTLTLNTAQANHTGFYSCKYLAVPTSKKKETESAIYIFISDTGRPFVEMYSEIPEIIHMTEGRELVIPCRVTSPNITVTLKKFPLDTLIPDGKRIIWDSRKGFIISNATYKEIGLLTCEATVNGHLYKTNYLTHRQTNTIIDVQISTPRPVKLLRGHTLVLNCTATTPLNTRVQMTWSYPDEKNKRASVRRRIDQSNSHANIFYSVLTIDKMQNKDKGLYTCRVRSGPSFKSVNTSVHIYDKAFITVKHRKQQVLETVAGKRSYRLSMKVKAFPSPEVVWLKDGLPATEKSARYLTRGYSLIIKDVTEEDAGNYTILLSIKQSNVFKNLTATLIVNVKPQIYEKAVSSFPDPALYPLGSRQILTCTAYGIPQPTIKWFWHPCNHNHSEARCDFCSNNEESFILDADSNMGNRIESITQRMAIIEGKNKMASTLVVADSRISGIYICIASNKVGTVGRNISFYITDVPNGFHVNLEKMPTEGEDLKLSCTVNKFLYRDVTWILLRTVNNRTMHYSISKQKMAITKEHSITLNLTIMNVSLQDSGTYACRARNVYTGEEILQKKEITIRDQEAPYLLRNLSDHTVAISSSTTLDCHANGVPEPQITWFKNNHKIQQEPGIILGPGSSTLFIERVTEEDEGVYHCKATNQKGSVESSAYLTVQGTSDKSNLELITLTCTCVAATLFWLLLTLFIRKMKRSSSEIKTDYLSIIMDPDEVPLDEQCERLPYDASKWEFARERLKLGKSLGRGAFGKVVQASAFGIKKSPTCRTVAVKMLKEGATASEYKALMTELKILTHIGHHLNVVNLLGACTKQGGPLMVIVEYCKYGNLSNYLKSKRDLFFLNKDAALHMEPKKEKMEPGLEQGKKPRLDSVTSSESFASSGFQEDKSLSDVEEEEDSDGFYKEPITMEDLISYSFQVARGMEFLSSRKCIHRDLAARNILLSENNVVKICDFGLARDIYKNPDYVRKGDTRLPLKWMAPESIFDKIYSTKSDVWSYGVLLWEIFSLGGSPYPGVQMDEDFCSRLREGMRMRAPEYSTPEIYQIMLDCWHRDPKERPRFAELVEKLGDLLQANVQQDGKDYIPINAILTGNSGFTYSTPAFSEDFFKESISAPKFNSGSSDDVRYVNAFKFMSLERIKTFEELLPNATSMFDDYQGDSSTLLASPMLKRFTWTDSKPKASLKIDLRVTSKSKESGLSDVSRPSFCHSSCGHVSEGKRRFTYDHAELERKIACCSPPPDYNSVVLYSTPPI

Cc1cccc(-c2nc(Nc3ccncc3)c3ccccc3n2)n1 [NK215]
0: KINOMEscan FLT1 [1] | KINOMEscan PRKCE [2] | KINOMEscan NEK11 [3] | KINOMEscan PLK4 [4]
